Measured values as given in PubChem BioAssay AID1963423 (Molecular Pharmacology Branch, DTP, NCI, 2024).

System: 439559-082-T-J2-PDC complex spheroid growth
Assay: Anticancer human tumor 439559-082-T-J2-PDC patient-derived colon adenocarcinoma cell line growth inhibition [Asc]
Settings: for IC50: curve of first compound; for viability, T/C: stronger effect = lower value
Procedure, shortened: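 Complex spheroids combining tumor cells with HUVEC endothelial cells and human MSCs, at 37 degrees C, 5% CO2; agents tested alone or combined, half-log dilutions from at or near clinical Cmax, or 10 microM if Cmax unknown.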

[1] = second compound 0.00316 µM, first compound 0.00316 µM
[2] = second compound 0.00316 µM, first compound 0.01 µM
[3] = second compound 0.00316 µM, first compound 0.0316 µM
[4] = second compound 0.00316 µM, first compound 0.1 µM
[5] = second compound 0.00316 µM, first compound 0.316 µM
[6] = second compound 0.00316 µM, first compound 1 µM
[7] = second compound 0.01 µM, first compound 0.00316 µM
[8] = second compound 0.01 µM, first compound 0.01 µM
[9] = second compound 0.01 µM, first compound 0.0316 µM
[10] = second compound 0.01 µM, first compound 0.1 µM
[11] = second compound 0.01 µM, first compound 0.316 µM
[12] = second compound 0.01 µM, first compound 1 µM
[13] = second compound 0.0316 µM, first compound 0.00316 µM
[14] = second compound 0.0316 µM, first compound 0.01 µM
[15] = second compound 0.0316 µM, first compound 0.0316 µM
[16] = second compound 0.0316 µM, first compound 0.1 µM
[17] = second compound 0.0316 µM, first compound 0.316 µM
[18] = second compound 0.0316 µM, first compound 1 µM
[19] = second compound 0.1 µM, first compound 0.00316 µM
[20] = second compound 0.1 µM, first compound 0.01 µM
[21] = second compound 0.1 µM, first compound 0.0316 µM
[22] = second compound 0.1 µM, first compound 0.1 µM
[23] = second compound 0.1 µM, first compound 0.316 µM
[24] = second compound 0.1 µM, first compound 1 µM
[25] = second compound 0.316 µM, first compound 0.00316 µM
[26] = second compound 0.316 µM, first compound 0.01 µM
[27] = second compound 0.316 µM, first compound 0.0316 µM
[28] = second compound 0.316 µM, first compound 0.1 µM
[29] = second compound 0.316 µM, first compound 0.316 µM
[30] = second compound 0.316 µM, first compound 1 µM
[31] = second compound 1 µM, first compound 0.00316 µM
[32] = second compound 1 µM, first compound 0.01 µM
[33] = second compound 1 µM, first compound 0.0316 µM
[34] = second compound 1 µM, first compound 0.1 µM
[35] = second compound 1 µM, first compound 0.316 µM
[36] = second compound 1 µM, first compound 1 µM
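Also: spheroids exposed to agents for 7 days starting day 3 after seeding.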
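For viability, T/C in this document: percent of DMSO vehicle control viability with 100% = vehicle.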

Which results are given for `CCN1CCN(Cc2ccc(Nc3ncc(F)c(-c4cc(F)c5nc(C)n(C(C)C)c5c4)n3)nc2)CC1` + CNC(C)C(=O)NC1CN(S(=O)(=O)c2cccc(S(=O)(=O)N3CCC4CCC(C(=O)NC(c5ccccc5)c5ccccc5)N4C(=O)C(NC(=O)C(C)NC)C3)c2)CCC2CCC(C(=O)NC(c3ccccc3)c3ccccc3)N2C1=O?
IC50 (second compound 0.00316 µM): > 1000 nM; IC50 (second compound 0.01 µM): > 1000 nM; IC50 (second compound 0.0316 µM): > 1000 nM; IC50 (second compound 0.1 µM): > 1000 nM; IC50 (second compound 0.316 µM): > 1000 nM; IC50 (second compound 1 µM): > 1000 nM; viability, T/C [1]: 99.5%; viability, T/C [2]: 92.6%; viability, T/C [3]: 91%; viability, T/C [4]: 94.1%; viability, T/C [5]: 85.8%; viability, T/C [6]: 66.9%; viability, T/C [7]: 107%; viability, T/C [8]: 101%; viability, T/C [9]: 87.3%; viability, T/C [10]: 95.4%; viability, T/C [11]: 88%; viability, T/C [12]: 73.1%; viability, T/C [13]: 95.8%; viability, T/C [14]: 111%; viability, T/C [15]: 89.6%; viability, T/C [16]: 96.8%; viability, T/C [17]: 94.5%; viability, T/C [18]: 78.5%; viability, T/C [19]: 103%; viability, T/C [20]: 87.9%; viability, T/C [21]: 99%; viability, T/C [22]: 94.6%; viability, T/C [23]: 95.5%; viability, T/C [24]: 64.2%; viability, T/C [25]: 91.6%; viability, T/C [26]: 84.2%; viability, T/C [27]: 86.8%; viability, T/C [28]: 75.5%; viability, T/C [29]: 82%; viability, T/C [30]: 65.5%; viability, T/C [31]: 88.9%; viability, T/C [32]: 77.3%; viability, T/C [33]: 69.4%; viability, T/C [34]: 69.2%; viability, T/C [35]: 62.1%; viability, T/C [36]: 48.9%

With `Cn1ncnc1[C@H]1c2n[nH]c(=O)c3cc(F)cc(c23)N[C@@H]1c1ccc(F)cc1` + CNC(C)C(=O)NC1CN(S(=O)(=O)c2cccc(S(=O)(=O)N3CCC4CCC(C(=O)NC(c5ccccc5)c5ccccc5)N4C(=O)C(NC(=O)C(C)NC)C3)c2)CCC2CCC(C(=O)NC(c3ccccc3)c3ccccc3)N2C1=O as the compound, how does the IC50 (second compound 0.00316 µM) read?
The IC50 was under 0.316 nM.

And the IC50 (second compound 0.01 µM)?
Its IC50 is over 100 nM.

And the IC50 (second compound 0.0316 µM)?
The IC50 was over 100 nM.

What about the IC50 (second compound 0.1 µM) of the same compound?
Its IC50 is over 100 nM.

And the IC50 (second compound 0.316 µM)?
Its IC50 is over 100 nM.

And the IC50 (second compound 1 µM)?
The IC50 was over 100 nM.

What about the viability, T/C (second compound 0.00316 µM, first compound 0.000316 µM) of the same compound?
Its viability, T/C is 46.7%.

What about the viability, T/C (second compound 0.00316 µM, first compound 0.001 µM) of the same compound?
The viability, T/C was 41.6%.

And the viability, T/C [1]?
Its viability, T/C is 38.5%.

And the viability, T/C [2]?
Its viability, T/C is 46.7%.

And the viability, T/C [3]?
The viability, T/C was 56.8%.

And the viability, T/C [4]?
The viability, T/C was 45%.

What about the viability, T/C (second compound 0.01 µM, first compound 0.000316 µM) of the same compound?
The viability, T/C was 101%.

And the viability, T/C (second compound 0.01 µM, first compound 0.001 µM)?
The viability, T/C was 101%.

What about the viability, T/C [7] of the same compound?
Its viability, T/C is 105%.

And the viability, T/C [8]?
The viability, T/C was 89%.

What about the viability, T/C [9] of the same compound?
Its viability, T/C is 95.2%.

What about the viability, T/C [10] of the same compound?
Its viability, T/C is 89.1%.

What about the viability, T/C (second compound 0.0316 µM, first compound 0.000316 µM) of the same compound?
The viability, T/C was 102%.

And the viability, T/C (second compound 0.0316 µM, first compound 0.001 µM)?
The viability, T/C was 94.8%.

And the viability, T/C [13]?
Its viability, T/C is 101%.

What about the viability, T/C [14] of the same compound?
Its viability, T/C is 88.9%.

And the viability, T/C [15]?
Its viability, T/C is 104%.

And the viability, T/C [16]?
Its viability, T/C is 104%.

What about the viability, T/C (second compound 0.1 µM, first compound 0.000316 µM) of the same compound?
The viability, T/C was 93.4%.

What about the viability, T/C (second compound 0.1 µM, first compound 0.001 µM) of the same compound?
Its viability, T/C is 101%.

What about the viability, T/C [19] of the same compound?
The viability, T/C was 97.2%.

What about the viability, T/C [20] of the same compound?
The viability, T/C was 92.4%.

What about the viability, T/C [21] of the same compound?
Its viability, T/C is 103%.

And the viability, T/C [22]?
Its viability, T/C is 104%.

And the viability, T/C (second compound 0.316 µM, first compound 0.000316 µM)?
Its viability, T/C is 99.8%.

What about the viability, T/C (second compound 0.316 µM, first compound 0.001 µM) of the same compound?
Its viability, T/C is 93.5%.

What about the viability, T/C [25] of the same compound?
The viability, T/C was 93.1%.

What about the viability, T/C [26] of the same compound?
The viability, T/C was 88.1%.

What about the viability, T/C [27] of the same compound?
Its viability, T/C is 97%.

And the viability, T/C [28]?
The viability, T/C was 99.7%.

And the viability, T/C (second compound 1 µM, first compound 0.000316 µM)?
Its viability, T/C is 74.5%.

What about the viability, T/C (second compound 1 µM, first compound 0.001 µM) of the same compound?
The viability, T/C was 72.2%.

What about the viability, T/C [31] of the same compound?
The viability, T/C was 79.5%.

And the viability, T/C [32]?
The viability, T/C was 80.8%.

And the viability, T/C [33]?
The viability, T/C was 87%.

What about the viability, T/C [34] of the same compound?
The viability, T/C was 81.6%.

What does the source list for `O=C(c1ccc(F)c(F)c1Nc1ccc(I)cc1F)N1CC(O)([C@@H]2CCCCN2)C1` + CNC(C)C(=O)NC1CN(S(=O)(=O)c2cccc(S(=O)(=O)N3CCC4CCC(C(=O)NC(c5ccccc5)c5ccccc5)N4C(=O)C(NC(=O)C(C)NC)C3)c2)CCC2CCC(C(=O)NC(c3ccccc3)c3ccccc3)N2C1=O?
IC50 (second compound 0.00316 µM): 262 nM; IC50 (second compound 0.01 µM): 248 nM; IC50 (second compound 0.0316 µM): 253 nM; IC50 (second compound 0.1 µM): 228 nM; IC50 (second compound 0.316 µM): 141 nM; IC50 (second compound 1 µM): 124 nM; viability, T/C [1]: 96.6%; viability, T/C [2]: 77.4%; viability, T/C [3]: 76.8%; viability, T/C [4]: 67.9%; viability, T/C [5]: 48.6%; viability, T/C [6]: 16.2%; viability, T/C [7]: 99.5%; viability, T/C [8]: 107%; viability, T/C [9]: 87.7%; viability, T/C [10]: 61.9%; viability, T/C [11]: 51%; viability, T/C [12]: 25.6%; viability, T/C [13]: 108%; viability, T/C [14]: 95.6%; viability, T/C [15]: 89.5%; viability, T/C [16]: 63.5%; viability, T/C [17]: 47.6%; viability, T/C [18]: 27.1%; viability, T/C [19]: 86.8%; viability, T/C [20]: 98.3%; viability, T/C [21]: 86.7%; viability, T/C [22]: 61.6%; viability, T/C [23]: 46.7%; viability, T/C [24]: 17%; viability, T/C [25]: 89.8%; viability, T/C [26]: 101%; viability, T/C [27]: 69.8%; viability, T/C [28]: 51.4%; viability, T/C [29]: 46.8%; viability, T/C [30]: 25%; viability, T/C [31]: 72.2%; viability, T/C [32]: 68%; viability, T/C [33]: 68.2%; viability, T/C [34]: 48.4%; viability, T/C [35]: 39%; viability, T/C [36]: 15.5%
